# Measured values published in ChEMBL document CHEMBL1201862, “PubChem BioAssay data set” (2004).
# Activity calls are given as the source filed them.
# Assays:
# SUMO-activating enzyme [1] = target: T1, SUMO-activating enzyme (Homo sapiens, UniProt Q9UBT2); experiment: blockers of UBC9-mediated SUMO conjugation – biochemical, AlphaScreen, SUMOylation inhibitor project, confirmation (AID 2018); assay type: functional
# SUMO-activating enzyme [2] = target: T1, SUMO-activating enzyme; experiment: blockers of SAE1/SAE2–UBC9 SUMO transfer – biochemical, HTRF, uHTS, primary screen (AID 2006); assay type: protein-complex assay
# [3] = target: T2, Mannose-6-phosphate isomerase (Homo sapiens, UniProt P34949); experiment: MPI inhibition at elevated mannose 6-phosphate – biochemical, fluorescence intensity, high mannose 6-phosphate, primary screen (AID 1220)
# T2 sequence (P34949 whole entry): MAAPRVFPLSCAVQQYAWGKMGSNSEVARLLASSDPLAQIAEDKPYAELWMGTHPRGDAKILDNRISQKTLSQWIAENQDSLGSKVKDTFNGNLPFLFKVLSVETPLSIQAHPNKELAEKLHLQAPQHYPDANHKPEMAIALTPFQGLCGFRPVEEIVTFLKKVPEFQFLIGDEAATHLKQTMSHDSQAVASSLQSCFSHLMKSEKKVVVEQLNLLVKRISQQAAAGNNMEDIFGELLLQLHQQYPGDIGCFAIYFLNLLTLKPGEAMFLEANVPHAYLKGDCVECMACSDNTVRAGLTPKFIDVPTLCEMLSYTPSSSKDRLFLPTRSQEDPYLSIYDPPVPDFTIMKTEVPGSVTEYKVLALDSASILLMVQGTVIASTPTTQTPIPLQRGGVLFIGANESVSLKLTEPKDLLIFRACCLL
# [4] = target: DNA dC->dU-editing enzyme APOBEC-3G (Homo sapiens, UniProt Q9HC16); experiment: Dose Response confirmation of small molecule APOBEC3G DNA Deaminase Inhibitors via a fluorescence-based single-stranded DNA deaminase assay. [Related pubchem assays (depositor defined):AID493012, AID493028]; assay type: functional
# [5] = target: Alkaline phosphatase, placental type (Homo sapiens, UniProt P05187); experiment: human placental alkaline phosphatase inhibition – biochemical, luminescence, confirmation (AID 1512); assay type: functional
# [6] = target: C-C chemokine receptor type 6 (Homo sapiens, UniProt P51684); experiment: antagonism of CCR6 beta-arrestin recruitment – cell-based, luminescent beta-arrestin readout, dose response (AID 504728); assay type: functional
# Beta-galactosidase = Beta-galactosidase (Escherichia coli, UniProt Q8VNN2); experiment: detection-enzyme interference by beta-gal modulators – biochemical, E. coli enzyme, set 3, artefact control for CCR6 antagonist project, dose response (AID 504712); assay type: functional
# Cytochrome P450 2C19 = Cytochrome P450 2C19 (Homo sapiens, UniProt P33261); experiment: Cytochrome panel assay with activity outcomes. Panel member name: p450-cyp2c19 Compounds with AC50 equal or less than 10 uM are considered active; assay type: functional
# Cytochrome P450 1A2 = target: T3, Cytochrome P450 1A2 (Homo sapiens, UniProt P05177);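 also: PubChem cytochrome P450 panel assay, CYP1A2 panel member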
# T3 sequence (P05177 whole entry): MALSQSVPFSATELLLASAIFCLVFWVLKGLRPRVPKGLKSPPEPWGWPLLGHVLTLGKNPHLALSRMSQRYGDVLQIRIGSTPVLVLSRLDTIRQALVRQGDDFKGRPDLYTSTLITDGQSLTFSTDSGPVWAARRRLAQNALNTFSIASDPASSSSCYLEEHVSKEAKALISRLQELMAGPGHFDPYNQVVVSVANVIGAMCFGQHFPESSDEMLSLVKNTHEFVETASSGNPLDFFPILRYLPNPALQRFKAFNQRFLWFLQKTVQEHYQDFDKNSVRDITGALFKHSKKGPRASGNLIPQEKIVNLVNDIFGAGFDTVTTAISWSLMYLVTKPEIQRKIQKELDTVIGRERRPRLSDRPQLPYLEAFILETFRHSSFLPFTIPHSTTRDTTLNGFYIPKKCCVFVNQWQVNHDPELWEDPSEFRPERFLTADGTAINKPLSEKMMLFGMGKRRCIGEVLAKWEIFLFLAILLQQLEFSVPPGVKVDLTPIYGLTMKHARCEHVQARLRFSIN
# Troponin, cardiac muscle = Troponin, cardiac muscle (Homo sapiens, UniProt P19429+P45379+P63316); experiment: Fluorescence-based biochemical high throughput dose response assay for activators of the calcium sensitivity of cardiac Regulated Thin Filaments (RTF). [Related pubchem assays (depositor defined):AID493008, AID493018, AID504382, AID504383]; assay type: protein-complex assay
# HEK293 [7] = experiment: cells; conditions: Homo sapiens
# HEK293 [8] = experiment: cells; conditions: Homo sapiens; remark: listed apart in the source
# [9] = target: T4, Short transient receptor potential channel 4 (Mus musculus, UniProt Q9QUQ5); experiment: SAR Analysis for the identification of selective inhibits of the transient receptor potential cation channel C4 (TRPC4): Automated Electrophysiology_2. [Related pubchem assays (depositor defined):AID2256]; assay type: functional
# T4 sequence (Q9QUQ5 whole entry): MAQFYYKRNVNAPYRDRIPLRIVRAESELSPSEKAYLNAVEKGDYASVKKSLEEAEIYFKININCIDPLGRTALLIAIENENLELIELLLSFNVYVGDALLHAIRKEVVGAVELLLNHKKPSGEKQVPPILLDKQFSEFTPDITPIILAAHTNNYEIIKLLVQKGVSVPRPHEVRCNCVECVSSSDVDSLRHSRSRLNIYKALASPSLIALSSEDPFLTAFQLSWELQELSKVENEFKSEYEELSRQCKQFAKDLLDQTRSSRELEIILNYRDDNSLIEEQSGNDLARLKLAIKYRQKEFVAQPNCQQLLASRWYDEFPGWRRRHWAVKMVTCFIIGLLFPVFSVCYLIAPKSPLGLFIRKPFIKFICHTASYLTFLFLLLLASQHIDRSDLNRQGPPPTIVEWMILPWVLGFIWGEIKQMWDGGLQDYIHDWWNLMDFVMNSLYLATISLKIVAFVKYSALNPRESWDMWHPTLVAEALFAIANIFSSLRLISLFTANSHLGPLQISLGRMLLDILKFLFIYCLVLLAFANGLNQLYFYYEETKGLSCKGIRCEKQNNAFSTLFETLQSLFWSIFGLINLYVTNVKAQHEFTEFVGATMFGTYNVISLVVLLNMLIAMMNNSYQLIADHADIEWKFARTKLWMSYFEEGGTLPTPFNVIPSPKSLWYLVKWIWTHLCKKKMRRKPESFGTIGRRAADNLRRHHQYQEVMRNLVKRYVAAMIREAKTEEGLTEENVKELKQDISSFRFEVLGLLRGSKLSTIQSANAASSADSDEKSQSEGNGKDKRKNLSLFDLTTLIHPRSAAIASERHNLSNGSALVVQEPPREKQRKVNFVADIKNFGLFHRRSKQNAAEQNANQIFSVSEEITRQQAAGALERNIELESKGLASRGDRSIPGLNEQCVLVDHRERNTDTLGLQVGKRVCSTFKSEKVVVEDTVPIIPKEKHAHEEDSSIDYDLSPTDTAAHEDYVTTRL
# [10] = NIH-3T3 fibroblast cytotoxicity, dose response, cytotoxicity control, cell-based, fluorescence, Alamar Blue, secondary assay (AID 2327); assay type: functional;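 also: NIH-3T3 mouse fibroblasts cultured with fluconazole at 8 µg/mL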
# [11] = fluconazole-exposed Candida albicans growth modulators – fluorescence, retest, confirmation (AID 2467); assay type: functional, cell-based
# [12] = target: Induced myeloid leukemia cell differentiation protein Mcl-1 (Homo sapiens, UniProt Q07820); assay type: functional
# [13] = target: T5, Intestinal-type alkaline phosphatase (Mus musculus, UniProt P24822); experiment: PubChem AID 488785; assay type: functional
# [14] = target: T6, Alkaline phosphatase, tissue-nonspecific isozyme (Homo sapiens, UniProt P05186); experiment: TNAP enzyme inhibition by screening hits, dose response, selectivity assay for mouse IAP inhibitor project, biochemical, human TNAP, uHTS hits (AID 488906); assay type: functional
# T6 sequence (P05186 whole entry): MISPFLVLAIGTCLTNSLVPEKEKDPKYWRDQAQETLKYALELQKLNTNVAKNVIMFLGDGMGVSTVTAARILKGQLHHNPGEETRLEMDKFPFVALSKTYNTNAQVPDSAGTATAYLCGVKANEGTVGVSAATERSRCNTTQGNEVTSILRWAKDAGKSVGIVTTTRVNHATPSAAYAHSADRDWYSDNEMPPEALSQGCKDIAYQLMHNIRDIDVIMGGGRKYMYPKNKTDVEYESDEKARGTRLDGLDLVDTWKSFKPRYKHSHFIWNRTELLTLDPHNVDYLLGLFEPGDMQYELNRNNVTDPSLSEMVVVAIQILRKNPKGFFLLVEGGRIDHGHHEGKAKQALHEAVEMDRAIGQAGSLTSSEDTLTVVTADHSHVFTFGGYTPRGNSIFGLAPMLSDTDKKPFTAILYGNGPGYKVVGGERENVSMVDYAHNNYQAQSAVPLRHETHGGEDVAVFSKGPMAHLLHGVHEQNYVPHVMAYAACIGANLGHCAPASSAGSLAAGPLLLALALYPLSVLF
# [15] = target: T7, Intestinal-type alkaline phosphatase (Homo sapiens, UniProt P09923); experiment: inhibition of human intestinal alkaline phosphatase – biochemical, dose response (AID 488876); assay type: functional
# [16] = target: T8, E3 ubiquitin-protein ligase XIAP (Homo sapiens, UniProt P98170); experiment: Counter Screen using XIAP-Bir3 for Chemical Antagonists of Bir1/2 domains of IAP-family anti-apoptotic proteins. [Related pubchem assays (depositor defined):AID1018, AID1449, AID1514, AID1638, AID1749, AID1750, AID488957, AID488963]
# [17] = target: T8, E3 ubiquitin-protein ligase XIAP; experiment: small molecules displacing peptide from XIAP – biochemical, IAP family, fluorescence polarization (AID 1018); assay type: functional
# Cytochrome P450 2C9 = Cytochrome P450 2C9 (Homo sapiens, UniProt P11712)
# [18] = target: T5, Intestinal-type alkaline phosphatase; experiment: PubChem AID 488875; assay type: functional
# [19] = target: T7, Intestinal-type alkaline phosphatase; experiment: human intestinal alkaline phosphatase activators, dose response, biochemical, luminescence, uHTS hits (AID 463120); assay type: functional
# [20] = target: T7, Intestinal-type alkaline phosphatase; experiment: activation of human intestinal alkaline phosphatase – biochemical, luminescent, uHTS hits, set 2, dose response (AID 488817); assay type: functional;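 also: potency of activators that raise enzyme activity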
# [21] = target: T6, Alkaline phosphatase, tissue-nonspecific isozyme; experiment: activation of tissue-nonspecific alkaline phosphatase – biochemical, TNAP isozyme, human IAP uHTS hits, selectivity assay for human IAP activator project, dose response (AID 488886); assay type: functional;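 also: potency of compounds raising TNAP activity as a selectivity check on IAP activators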
# [22] = target: T7, Intestinal-type alkaline phosphatase; experiment: inhibition of human intestinal alkaline phosphatase – biochemical, luminescent, uHTS hits, set 2, dose response (AID 488793); assay type: functional
# [23] = target: T7, Intestinal-type alkaline phosphatase; experiment: Dose Response confirmation of uHTS hits from a small molecule inhibitors of human intestinal alkaline phosphatase via a luminescent assay. [Related pubchem assays (depositor defined):AID2544, AID2574]; assay type: functional
# T7 sequence (P09923 whole entry): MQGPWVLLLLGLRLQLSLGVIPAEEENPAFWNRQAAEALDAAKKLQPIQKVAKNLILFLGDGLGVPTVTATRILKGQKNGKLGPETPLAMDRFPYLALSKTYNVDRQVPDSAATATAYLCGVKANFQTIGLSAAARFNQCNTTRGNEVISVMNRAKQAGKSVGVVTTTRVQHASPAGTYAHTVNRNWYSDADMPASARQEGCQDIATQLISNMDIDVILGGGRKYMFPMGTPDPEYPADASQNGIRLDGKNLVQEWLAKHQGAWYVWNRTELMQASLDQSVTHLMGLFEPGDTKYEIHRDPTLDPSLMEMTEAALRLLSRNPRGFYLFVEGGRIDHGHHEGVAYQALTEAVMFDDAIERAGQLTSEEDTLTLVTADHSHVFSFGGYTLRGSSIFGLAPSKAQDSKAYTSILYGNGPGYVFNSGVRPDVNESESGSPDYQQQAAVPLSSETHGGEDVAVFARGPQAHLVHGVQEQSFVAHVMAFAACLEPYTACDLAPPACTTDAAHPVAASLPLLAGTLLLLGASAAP
# T5 sequence (P24822 whole entry): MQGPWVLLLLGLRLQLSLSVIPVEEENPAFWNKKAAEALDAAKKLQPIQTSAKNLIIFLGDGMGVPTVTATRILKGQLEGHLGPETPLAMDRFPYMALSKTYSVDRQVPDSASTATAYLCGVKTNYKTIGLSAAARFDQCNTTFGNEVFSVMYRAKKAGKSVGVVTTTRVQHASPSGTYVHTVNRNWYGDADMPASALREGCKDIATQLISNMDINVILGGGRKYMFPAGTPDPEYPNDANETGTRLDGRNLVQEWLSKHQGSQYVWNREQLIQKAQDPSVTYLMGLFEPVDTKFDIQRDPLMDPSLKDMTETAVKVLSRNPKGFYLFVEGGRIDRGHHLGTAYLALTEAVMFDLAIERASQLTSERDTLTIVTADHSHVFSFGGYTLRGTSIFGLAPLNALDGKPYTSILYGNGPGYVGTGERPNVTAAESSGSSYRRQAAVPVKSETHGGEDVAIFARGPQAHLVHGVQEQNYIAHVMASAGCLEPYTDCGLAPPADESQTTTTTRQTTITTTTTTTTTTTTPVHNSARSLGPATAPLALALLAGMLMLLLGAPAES
# T8 sequence (P98170 whole entry): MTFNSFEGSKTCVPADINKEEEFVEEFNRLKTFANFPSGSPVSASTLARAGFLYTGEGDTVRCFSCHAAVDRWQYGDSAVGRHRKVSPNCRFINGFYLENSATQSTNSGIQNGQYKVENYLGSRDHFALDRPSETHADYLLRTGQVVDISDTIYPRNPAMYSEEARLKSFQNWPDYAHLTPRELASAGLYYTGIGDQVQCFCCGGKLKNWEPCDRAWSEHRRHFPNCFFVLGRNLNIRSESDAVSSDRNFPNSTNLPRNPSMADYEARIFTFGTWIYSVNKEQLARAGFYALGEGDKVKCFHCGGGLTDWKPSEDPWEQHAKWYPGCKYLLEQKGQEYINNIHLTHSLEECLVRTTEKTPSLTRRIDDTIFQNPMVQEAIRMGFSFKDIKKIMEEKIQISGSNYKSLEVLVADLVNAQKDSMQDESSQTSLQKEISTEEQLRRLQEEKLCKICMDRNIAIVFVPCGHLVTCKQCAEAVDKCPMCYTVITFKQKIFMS
# T1 sequence (Q9UBE0 whole entry): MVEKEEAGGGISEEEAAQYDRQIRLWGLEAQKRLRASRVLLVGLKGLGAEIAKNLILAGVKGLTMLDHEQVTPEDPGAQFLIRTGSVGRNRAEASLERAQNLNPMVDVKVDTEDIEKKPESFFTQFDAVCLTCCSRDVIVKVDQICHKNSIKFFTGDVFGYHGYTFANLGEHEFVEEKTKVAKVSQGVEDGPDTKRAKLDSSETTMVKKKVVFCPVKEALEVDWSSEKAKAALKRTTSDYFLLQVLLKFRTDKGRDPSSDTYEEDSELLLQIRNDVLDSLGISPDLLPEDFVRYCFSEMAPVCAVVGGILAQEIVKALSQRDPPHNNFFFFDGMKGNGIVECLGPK
# T1 sequence (Q9UBT2 whole entry): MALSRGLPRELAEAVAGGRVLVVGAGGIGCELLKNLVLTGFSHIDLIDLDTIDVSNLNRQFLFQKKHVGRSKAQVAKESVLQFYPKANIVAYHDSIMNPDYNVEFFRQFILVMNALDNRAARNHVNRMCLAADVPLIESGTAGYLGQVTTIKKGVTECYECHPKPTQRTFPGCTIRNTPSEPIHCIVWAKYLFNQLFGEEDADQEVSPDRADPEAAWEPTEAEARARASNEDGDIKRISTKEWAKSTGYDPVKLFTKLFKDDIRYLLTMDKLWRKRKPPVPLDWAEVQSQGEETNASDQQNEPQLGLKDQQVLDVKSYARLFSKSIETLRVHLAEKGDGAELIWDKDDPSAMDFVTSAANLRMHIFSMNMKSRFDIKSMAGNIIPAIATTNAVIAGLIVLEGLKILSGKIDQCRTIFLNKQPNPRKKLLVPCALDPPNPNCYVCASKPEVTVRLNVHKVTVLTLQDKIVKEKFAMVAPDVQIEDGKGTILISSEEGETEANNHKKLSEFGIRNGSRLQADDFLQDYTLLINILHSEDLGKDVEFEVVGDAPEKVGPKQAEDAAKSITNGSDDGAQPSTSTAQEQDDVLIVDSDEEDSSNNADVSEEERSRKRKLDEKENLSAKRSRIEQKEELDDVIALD
# Sequence of Cytochrome P450 2C19 (P33261 whole entry): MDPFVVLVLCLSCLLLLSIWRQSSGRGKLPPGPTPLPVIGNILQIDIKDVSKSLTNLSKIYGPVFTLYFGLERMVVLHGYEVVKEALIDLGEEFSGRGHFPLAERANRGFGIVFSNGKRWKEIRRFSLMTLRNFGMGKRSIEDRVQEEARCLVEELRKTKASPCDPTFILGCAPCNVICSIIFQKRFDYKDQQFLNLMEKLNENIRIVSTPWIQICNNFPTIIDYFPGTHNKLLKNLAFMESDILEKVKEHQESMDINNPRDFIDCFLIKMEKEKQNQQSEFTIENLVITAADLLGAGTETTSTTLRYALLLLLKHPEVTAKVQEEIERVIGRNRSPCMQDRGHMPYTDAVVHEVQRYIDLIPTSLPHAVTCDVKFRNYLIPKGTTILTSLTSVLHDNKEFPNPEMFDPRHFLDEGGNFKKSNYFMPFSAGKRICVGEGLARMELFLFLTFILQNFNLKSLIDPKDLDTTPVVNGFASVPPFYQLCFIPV
# Sequence of C-C chemokine receptor type 6 (P51684 whole entry): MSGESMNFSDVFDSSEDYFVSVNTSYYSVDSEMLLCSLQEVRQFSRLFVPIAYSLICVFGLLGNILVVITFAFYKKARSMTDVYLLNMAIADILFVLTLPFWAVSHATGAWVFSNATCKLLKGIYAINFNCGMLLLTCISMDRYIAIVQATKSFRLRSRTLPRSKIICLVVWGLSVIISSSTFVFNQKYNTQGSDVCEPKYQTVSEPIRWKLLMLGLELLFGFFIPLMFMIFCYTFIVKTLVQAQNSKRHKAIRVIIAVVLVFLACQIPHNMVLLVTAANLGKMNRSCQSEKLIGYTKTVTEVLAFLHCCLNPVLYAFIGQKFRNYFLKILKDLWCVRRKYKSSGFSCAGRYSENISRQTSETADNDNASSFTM
# Sequence of DNA dC->dU-editing enzyme APOBEC-3G (Q9HC16 whole entry): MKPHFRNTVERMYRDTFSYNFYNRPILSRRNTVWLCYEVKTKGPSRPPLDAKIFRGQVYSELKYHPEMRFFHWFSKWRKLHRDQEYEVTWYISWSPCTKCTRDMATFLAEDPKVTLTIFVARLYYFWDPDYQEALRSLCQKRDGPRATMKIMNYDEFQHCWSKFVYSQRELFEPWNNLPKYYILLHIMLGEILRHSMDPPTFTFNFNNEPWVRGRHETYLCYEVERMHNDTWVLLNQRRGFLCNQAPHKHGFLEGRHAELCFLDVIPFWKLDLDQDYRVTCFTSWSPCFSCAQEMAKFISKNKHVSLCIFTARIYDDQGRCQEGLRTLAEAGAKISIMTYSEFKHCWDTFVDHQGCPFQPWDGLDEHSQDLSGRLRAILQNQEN
# Sequence of Induced myeloid leukemia cell differentiation protein Mcl-1 (Q07820 whole entry): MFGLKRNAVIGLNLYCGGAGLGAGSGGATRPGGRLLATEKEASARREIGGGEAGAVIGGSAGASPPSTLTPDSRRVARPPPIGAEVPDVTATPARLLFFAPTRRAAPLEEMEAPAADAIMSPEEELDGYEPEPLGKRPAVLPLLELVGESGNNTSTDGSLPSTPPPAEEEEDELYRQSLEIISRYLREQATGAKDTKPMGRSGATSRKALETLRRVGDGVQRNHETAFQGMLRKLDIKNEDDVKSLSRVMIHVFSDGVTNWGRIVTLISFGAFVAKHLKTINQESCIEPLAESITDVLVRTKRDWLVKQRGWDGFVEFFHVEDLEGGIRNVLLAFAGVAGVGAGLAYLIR
# Sequence of Alkaline phosphatase, placental type (P05187 whole entry): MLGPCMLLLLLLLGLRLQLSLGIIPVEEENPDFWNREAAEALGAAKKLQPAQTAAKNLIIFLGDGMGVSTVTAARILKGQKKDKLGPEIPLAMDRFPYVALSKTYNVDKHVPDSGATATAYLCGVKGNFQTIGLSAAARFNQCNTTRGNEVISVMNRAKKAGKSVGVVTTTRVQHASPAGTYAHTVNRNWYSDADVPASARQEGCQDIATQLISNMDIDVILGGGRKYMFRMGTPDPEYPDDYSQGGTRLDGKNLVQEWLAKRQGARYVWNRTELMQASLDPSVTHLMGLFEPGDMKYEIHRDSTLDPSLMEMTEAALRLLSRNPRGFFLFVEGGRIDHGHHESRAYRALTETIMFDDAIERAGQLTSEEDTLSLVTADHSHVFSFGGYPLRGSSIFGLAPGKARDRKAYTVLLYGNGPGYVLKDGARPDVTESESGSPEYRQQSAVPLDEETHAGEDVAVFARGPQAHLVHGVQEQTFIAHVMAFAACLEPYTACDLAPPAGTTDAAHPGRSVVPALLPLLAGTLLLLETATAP
smiles,measurement,setting,value
O=C(O)CN1C(=O)/C(=C/c2ccc(SCc3ccccc3)o2)SC1=S,IC50,SUMO-activating enzyme [1],4.13 µM (active)
same,IC50,SUMO-activating enzyme [2],15.5 µM (active)
same,IC50,[3],> 50 µM (not active)
CC(=O)NC(=S)NNC(=O)C(c1ccccc1)c1ccccc1,IC50,[4],35.1 µM (active)
same,IC50,[5],> 100 µM (inactive)
CC1C(c2ccccc2)N(C)C(c2ccccc2)C(C)C1(O)C#Cc1ccccc1 (configuration not stated),IC50,[6],> 66.6 µM (inactive)
same,IC50,Beta-galactosidase,> 66.6 µM (inactive)
COc1cc2nc(N3CCN(C(=O)[C@H]4COc5ccccc5O4)CC3)nc(N)c2cc1OC.CS(=O)(=O)O,AC50,Cytochrome P450 2C19,inactive
same,AC50,Cytochrome P450 1A2,inactive
NC(=O)C1CCN(C(=O)c2ccc(-c3ccccc3)cc2)CC1,EC50,"Troponin, cardiac muscle",> 71.5 µM (inactive)
O=C(Nc1ccccc1Cl)c1ccccc1CC(O)(c1ccccc1)c1ccccc1,EC50,HEK293 [7],> 59.7 µM (inactive)
same,EC50,HEK293 [8],> 59.7 µM (inactive)
COc1ccccc1N1CCN(c2cc(C)c3ccccc3n2)CC1,IC50,[9],9.89 µM (active)
Cc1ccc(/C=C2\SC(=S)N(/N=C/c3cc([N+](=O)[O-])ccc3O)C2=O)o1,EC50,[10],> 150 µM (inactive)
same,IC50,SUMO-activating enzyme [1],0.35 µM (active)
same,EC50,[11],27.8 µM (active)
same,IC50,SUMO-activating enzyme [2],4.54 µM (active)
same,IC50,[12],1.53 µM (active)
same,IC50,[13],61.9 µM (active)
same,IC50,[14],> 100 µM (inactive)
same,IC50,[15],80 µM (active)
CCc1ccc(NC(=O)N2CCN(c3ccc(F)cc3)CC2)cc1,IC50,[16],> 100 µM (inactive)
same,IC50,[17],> 100 µM (not active)
CS(=O)(=O)N1CCC2(CC1)CN(c1ccc(-c3ccccc3)cc1)C2,AC50,Cytochrome P450 2C19,inconclusive
same,AC50,Cytochrome P450 1A2,inconclusive
same,AC50,Cytochrome P450 2C9,inconclusive
CC(=O)Nc1cccc(C(=O)NNC(=O)c2nnc(O)c3ccccc23)c1,EC50,[18],> 100 µM (inactive)
same,EC50,[19],6.37 µM (active)
same,EC50,[20],12.3 µM (active)
same,EC50,[21],11 µM (active)
COc1cc(-c2c(-c3ccc4c(c3)OCO4)noc2C)ccc1F,EC50,"Troponin, cardiac muscle",> 71.4 µM (inactive)
Cc1ccc(-c2nc3ccccc3c(=O)n2CCN2CCOCC2)cc1,IC50,[16],> 100 µM (inactive)
same,IC50,[17],> 100 µM (not active)
Cc1[nH]n(-c2nc(-c3ccccc3)cc(=O)[nH]2)c(=O)c1CCO,IC50,[22],2.36 µM (active)
same,IC50,[23],2.82 µM (active)
same,EC50,[18],> 100 µM (inactive)
same,EC50,[21],30.7 µM (active)
